Test results from patent US6747021B2, “Cryptophycin compound” (Eli Lilly and Company, priority 2000, dated 2004).

Experiments:
[1] = tested on: COLON ADENOCARCINOMA-26/A; format: in vivo, murine; conditions: IV 6.5 mg/kg/inj days 1,5,9; total dose 19.5 mg/kg; Balb/C female mice
Text: (§1) Inhibition of tumors transplanted into mice is an accepted procedure for studying the efficacy of antitumor agents (Corbett, et al., In vivo Methods for Screening and Preclinical Testing; Use of rodent solid tumors for drug discovery., In: Anticancer Drug Development Guide: Preclinical Screening, Clinical Trials, and Approval, B. Teicher (ed), Humana Press Inc., Totowa, N.J., Chapter 5, pages 75-99 (1997); (Corbett, et al., Int. J. Pharmacog., 33, Supplement, 102-122 (1995)). Murine tumors or human xenographs were implanted essentially as described by Corbett in In vivo Methods for Screening and Preclinical Testing; Use of rodent solid tumors for drug discovery. Briefly, the murine tumor or human xenograph was implanted subcutaneously using either 12-gauge trocar implants or counted number of cells. The location for the trocar insertion is midway between the axillary and inguinal region along the side of the mouse. The trocar is slipped approximately ¾ of an inch subcutaneously up toward the axilla before discharging the tumor fragment, and pinching the skin as the trocar is removed. Alternatively, human tumor cells prepared from a […] of donor tumors (5×10^6 cells) were implanted subcutaneously in a hind-leg of a male or female nude mouse (Charles River). Either a test compound in vehicle or vehicle alone was administered by intravenous bolus injection (iv), intraperitoneal injection (ip), or oral gavage (po). Each treatment group, as well as a group of untreated control animals, consisted of five animals per group in each experiment. Subcutaneous tumor response was monitored by tumor volume measurement performed twice each week over the course of the experiment (60-120 days). Body weights were taken as a general measure of toxicity. The subcutaneous tumor data were analyzed by determining the median tumor weight for each treatment group over the course of the experiment and calculating the tumor growth delay as the difference in days for the treatment versus the control tumors to reach a volume of either 500 or 1000 mm^3.
(§2) Cryptophycin-309 (309) was tested against a variety of murine and human tumors substantially as described supra. Cryptophycin-55 glycinate (55-GLY), Taxol, and Adriamycin (Adria) were also included in certain tests for purposes of comparison. Cryptophycin 55 glycinate is known in the art (WO 98/08505, Example 9) and has the following structure: [drawing 9]
(§3) Tumor Weight(mg)=(a×b^2)/2 where a=tumor length (mm) and b=tumor width (mm).
(§4) Tumor Growth Delay=T−C where T is the median time (days) required for the treatment group tumors to reach a predetermined size, and C is the median time (days) for the control group tumors to reach the same size. Tumor-free survivors are excluded from this calculation, and are tabulated separately (Tumor Free).
(§5) Log Kill=Tumor Growth Delay/(3.32)(Td)
(§6) where Tumor Growth Delay is as previously defined and Td is tumor volume doubling time (days), estimated from the best fit straight line from a log-linear growth plot of the control group of tumors in exponential growth (100-800 mg range)
(§7) %T/C mass—The treatment and control groups are measured when the control group tumors reach approximately 700 to 1200 mg in size (median group). The median tumor weight of each group is determined (including zeros). The T/C value in percent is an indication of antitumor effectiveness. A T/C≦42% is considered significant antitumor activity. A T/C<10% is considered to indicate highly significant antitumor activity.
(§8) Body Weight Loss Nadir—A body weight loss nadir (mean of group) of greater than 20% or drug deaths greater than 20% are considered to indicate an excessively toxic dosage in single course trials.
(§9) Activity Rating—the Activity Rating is derived from the Log Kill according to the following table: […]

[2] = tested on: COLON ADENOCARCINOMA 51/A; experiment: Early stage murine colon adenocarcinoma 51/A subcutaneous tumor assay; format: in vivo; conditions: IV 6.5 mg/kg/inj days 3,6,9; total dose 19.5 mg/kg; CDF female mice
Text: as §1, §2, §3, §4, §5, §6, §7, §8, §9

[3] = tested on: MAMMARY ADENOCARCINOMA-16/C/Adr; experiment: Early stage murine mammary adenocarcinoma-16/C/Adr subcutaneous tumor assay; format: in vivo; conditions: IV 7.5 mg/kg/inj days 1 and 7; total dose 15 mg/kg; C3H female mice
Text: as §1, §2, §3, §4, §5, §6, §7, §8, §9

Structure (SMILES): COc1cccc2c1C(=O)c1c(O)c3c(c(O)c1C2=O)C[C@@](O)(C(=O)CO)C[C@@H]3O[C@H]1C[C@H](N)[C@H](O)[C@H](C)O1 [Adriamycin]
- % T/C MASS [1]: 44%
- DRUG DEATHS [1]: 0/5
- LOG KILL [1]: None
- MEDIAN TUMOR WEIGHT [1]: 393 mg
- % T/C MASS [2]: 0%
- ACTIVITY RATING [2]: +++ (2.0-2.8)
- DRUG DEATHS [2]: 0/6
- GROWTH DELAY [2]: 16.6 days
- LOG KILL [2]: 2.0
- MEDIAN TUMOR WEIGHT [2]: 0 mg
- DRUG DEATHS [3]: 0/5
- LOG KILL [3]: None
- MEDIAN TUMOR WEIGHT [3]: 1096 mg
